Read-outs that look alike come from different tables or passages of the source.
Legend:
Syrian Golden Hamster = experiment: In vivo effect on plasma lipids and glucose in Syrian Golden Hamster; conditions: for total cholesterol, LDL-cholesterol, and triglyceride levels (in words): Syrian Golden Hamster, compared with lovastatin; for Glucose, percent change in parentheses / HDL cholesterol, percent change in parentheses / LDL cholesterol, percent change in parentheses / Total cholesterol, percent change in parentheses / Trigly-ceride, percent change in parentheses: against normal diet control, 6.0 mg/kg/day; for Glucose / HDL cholesterol / LDL cholesterol / Total cholesterol / Trigly-ceride: normal diet + 6.0 mg/kg/day, oral, 14 days; for Glucose: hamster; for HDL cholesterol / LDL cholesterol / Total cholesterol / Trigly-ceride: hamster plasma
Method: In order to investigate the effect of the compound of formula (1) of the invention, the compound was orally administered into male Syrian Golden Hamsters having weights of 90~110 g and then blood was taken from each animal. Plasma lipids, i.e., total cholesterol, LDL-cholesterol, HDL-cholesterol and triglycerides were analyzed using an automatic analyzer (Automatic analyzer model Hitachi 7150).
Male Syrian Golden Hamsters weighing 90~110 g distributed from Samyuk Animal Laboratory, Seoul, Korea were bred under the following conditions: They were maintained under reverse light cycle (light cycle: from 6 P.M to 6 A.M; dark cycle: from 6 A.M. to 6 P.M.). The food and water were supplied at 10 A.M. The commercially available standard rodent chows were used. The hamsters were divided into 6 or 7 animals per group. The animals were fasted for 12 hours before administrating the drug. Then, dehydrocoridaline derivatives dissolved in a 0.25% methyl cellulose solution was administered orally for 14 days at the indicated time per a day. After fasting animals for 24 hours from the last administration, blood was extracted using a cardiac puncture and plasma was then isolated. Plasma lipids, i.e., total cholesterol, LDL-cholesterol, HDL-cholesterol and triglyceride values were analyzed using Automatic Analyzer (Hitachi 7150).

[1] = Acute oral toxicity in SD rats; type: in vivo; conditions: rat, in vivo, po, rats
Method: (§1) Meanwhile, the toxicity of the compounds of the present invention was mvestigated as follows: i.e., the compounds were suspended into propylene glycol and then orally administered into each of 5 male and female SD rats at the age of 5-weeks that were fasted for 12 hours. Under the usual breeding conditions, general symptoms, weight change and lethal case of the above rats were monitored for two weeks. At the dose over 2,000 mg/kg of the compound nos. […] Rats were safe against the dose of 700 mg/kg of compound no. 8.

SD rats = experiment: Acute oral toxicity in SD rats; type: in vivo; conditions: for general symptoms, weight change and lethal case over two weeks: rat, in vivo
Method: as §1

sterol 14-reductase = target: T1, sterol 14-reductase (Rattus norvegicus, UniProt A0ACM8Q6X4); experiment: Sterol 14-reductase assay with rat liver microsomes (substrate 4,4-dimethyl-5α-cholesta-7,14-dien-3β-ol, GLC); type: biochemical, Sprague-Dawley rats
T1 construct: to give a microsome which was used as an enzyme source of sterol 14-reductase; from tissue
T1 sequence (A0ACM8Q6X4 1-418): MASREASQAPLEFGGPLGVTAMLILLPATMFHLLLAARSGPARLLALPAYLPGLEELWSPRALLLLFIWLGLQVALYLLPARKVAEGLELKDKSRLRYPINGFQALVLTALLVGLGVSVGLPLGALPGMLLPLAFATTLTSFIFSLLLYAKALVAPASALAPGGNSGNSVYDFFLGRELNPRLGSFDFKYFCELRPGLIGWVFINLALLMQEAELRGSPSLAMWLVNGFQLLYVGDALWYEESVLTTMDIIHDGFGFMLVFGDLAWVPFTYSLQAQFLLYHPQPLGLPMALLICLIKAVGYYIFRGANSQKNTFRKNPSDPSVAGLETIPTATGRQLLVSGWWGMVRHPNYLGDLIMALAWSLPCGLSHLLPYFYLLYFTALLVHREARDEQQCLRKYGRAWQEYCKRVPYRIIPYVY
Method: First, a screening system for sterol 14-reductase was constructed in which 4,4-dimethyl-5α-cholesta-7,14-dien-3β-ol is used as a substrate and then, the effect on the activity of sterol 14-reductase was investigated in the screening system.
The animals were fasted for 12 hours before excising liver tissues and then sacrificed by decapitation at midnight. An aqueous solution containing 0.25M of sucrose was injected into the hepatic portal vein to remove all the blood within the liver, and then, the liver was excised. The liver was homogenated with two volummes of buffer solution 1 (0.1 M potassium phosphate , 1 mM reduced glutathione, 0.5 mM EDTA, 20% (v/v) glycerol, pH 7.4) by repeating pestles over 10 times and then, centrifuged with 900×g for 5 minutes to give a supernatant. The supernatant was centrifuged with 12,000×g for 20 minutes. The supernatant obtained was ultracentrifuged with 105,000×g for 90 minutes to give a microsome which was used as an enzyme source of sterol 14-reductase. Assay against sterol 14-reductase was carried out as follows: 60 nmol of 4,4-dimethyl-5α-cholesta-7,14-dien-3β-ol and the extract from Corydalis Turtschaninowii Besser dissolved into DMSO were added to an assay mixture (total volume 1.0 ml) containing 2 mg of microsomal protein, 2 mM of NADPH and 25 mg of glucose plus 20 units of glucose oxidase with preincubations under nitrogen at 37° C. for 4 min unless otherwise specified to establish anaerobic condition. Buffer A (0.1M potassium phosphate buffer, pH 7.4, including 1 mM reduced glutathione, 0.5 mM EDTA, and 20% (v/v) glycerol) used for incubation had been equilibrated with nitrogen, and nitrogen was exchanged for air in all sealed reaction flasks prior to the start of incubations. Incubation of the complete mixture was carried out anaerobically in sealed flasks for 10 min at 37° C. unless otherwise indicated. Incubations were terminated by the addition of 1 ml of ethanolic KOH followed by heating under reflux for 10 min. Sterols were extracted four times with 4 ml of petroleum ether, and the solvent was evaporated to dryness under a nitrogen stream. The resulting residue was dissolved in 200-500 μl of n-hexane for quantification by GLC at high sensitive attenuation. The activity of sterol 14-reductase was determined with the amount of the substrate wherein the double bonds of 14-carbon were reduced (for the amount reduced by 1 mg of the microsome protein for 1 minute).

[2] = test system: human liver HepG2 cell line; experiment: Cholesterol biosynthesis in cultured human liver cell line HepG2 ([1,2-14C]acetate); type: cell-based; conditions: compared with AY9944, comparative drug
Method: Cultured human liver HepG2 cell line was grown on RPMI (Rosewell park Memorial Institute) 1640 culture medium containing 10% […] until 60% of monolayer are formed in a 60 mm culture dish. After replacing the medium with 3 ml of a fresh culture medium containing 10%(v/v) LPDS (Fetal calf lipoprotein-deficient serum), the cells were further grown for 48 hours until 90% of cultivation degree appear. The culture medium was removed and the cell was then washed with PBS. 2 ml of culture medium containing compound no. 8 (final concentration 100 μM) and AY-9944 (final concentration 1 μM) were added thereto. Then, the medium was cultivated at 37° C. for 1 hour under the condition of 95% air/5% carbonic acid gas. AY-9944 which is an inhibitor for sterol 7-reductase was used as a control drug for assuring the present experimental procedure on the inhibition of cholesterol biosynthesis. Thereafter, 3 μCi of [1 ,2-^14 C]acetate (72 mCi/mmol) were added thereto. The cultivation was continued for 2 hours so that the isotope is introduced into the cell and used as a precursor for sterol to be synthesized. Then, the culture medium was completely removed and washed with PBS twice and the cells were collected by scratching. 10 μg of cholesterol, 10 μg of lanosterol and [^3 H]cholesterol (30,000 dpm) were added thereto, and saponification reaction was carried out at 70° C. for an hour by adding 7.5% of methanolic KOH solution. Unsaponified sterol was removed by extracting them three times with 3 ml of petroleum ether and dried with nitrogen purging. The dried samples were redissolved in 200 μl of chloroform. An aliquot of the samples was loaded onto Silicagel 60F thin layer plate and then separated using ethyl acetate/hexane 25/75 (v/v) as the developing solvent. The thin layer film was developed by exposure to Amersham Hyperfilm at -70° C. for 7 days. Cholesterol band were confirmed by comparing the band appeared in the film and that appeared in the iodine-stained thin layer. After scratching the cholesterol band, it was quantified by a liquid scintillation counter.

[3] = read-out: Enzyme Activity (relative in vitro activity for sterol 14-reductase, IC50 class)

SMILES | total cholesterol, LDL-cholesterol, and triglyceride levels (in words) (Syrian Golden Hamster) | Glucose, percent change in parentheses (Syrian Golden Hamster) | HDL cholesterol, percent change in parentheses (Syrian Golden Hamster) | LDL cholesterol, percent change in parentheses (Syrian Golden Hamster) | Total cholesterol, percent change in parentheses (Syrian Golden Hamster) | Trigly-ceride, percent change in parentheses (Syrian Golden Hamster) | Glucose (Syrian Golden Hamster) | HDL cholesterol (Syrian Golden Hamster) | LDL cholesterol (Syrian Golden Hamster) | Total cholesterol (Syrian Golden Hamster) | Trigly-ceride (Syrian Golden Hamster) | LD50 at 336 h ([1]; female) | LD50 at 336 h ([1]; male) | safety of rats at single oral dose (SD rats; dose of 700 mg/kg, oral, SD rats) | IC50 (sterol 14-reductase; dissolved in DMSO, read-out: concentration of active ingredient in the assay at which 50% of inhibitory effect was observed (sterol 14-reductase)) | IC50 (sterol 14-reductase; [3]) | cholesterol biosynthesis in human HepG2 cell line (in words) [2] | general symptoms, weight change and lethal case over two weeks (SD rats)
CCc1c2[n+](cc3c(OC)c(OC)ccc13)CCc1cc(OC)c(OC)cc1-2 [Compound No. 8, 13-Ethylpalmatine] | markedly decreased | -10.9% | -1.8% | -42.0% | -25.4% | -31.7% | 162.2 ± 11.3 mg/dL | 47.5 ± 3.0 mg/dL | 24.5 ± 1.8 mg/dL | 94.0 ± 6.6 mg/dL | 90.4 ± 8.9 mg/dL | > 760 mg/kg | > 925 mg/kg | safe | 100 to 3000 µM | ≤ 1 µM | markedly inhibited | 
CCc1c2[n+](cc3c(OC)c(OC)ccc13)CCc1cc3c(cc1-2)OCO3 [Compound No. 6, 13-Ethylberberine] |  |  |  |  |  |  |  |  |  |  |  |  |  |  |  | ≤ 1 µM | markedly inhibited | 
CCOc1cc2c(cc1OCC)C1=C(CC)c3ccc(OCC)c(OCC)c3CN1CC2 [Compound No. 47, 13-Ethyl-2,3,9,10-tetraethoxydihydroprotoberberine] |  |  |  |  |  |  |  |  |  |  |  |  |  |  |  | ≤ 1 µM | markedly inhibited | 
CCC1=C2c3cc(OC)c(OC)cc3CCN2Cc2c1ccc(OC)c2OC [Compound No. 46, 13-Ethyldihydropalmatine] | markedly decreased | -12.7% | -6.8% | -50.7% | -34.6% | -35.6% | 158.8 ± 16 mg/dL | 49.2 ± 2.9 mg/dL | 20.8 ± 2.3 mg/dL | 82.4 ± 5.4 mg/dL | 85.2 ± 11.0 mg/dL | > 3000 mg/kg | > 3000 mg/kg |  |  | ≤ 1 µM | markedly inhibited | general symptoms and the body weight change of the animals were normal and the lethal case was not observed
CC[C@H](C)C(=O)O[C@H]1C[C@@H](C)C=C2C=C[C@H](C)[C@H](CC[C@@H]3C[C@@H](O)CC(=O)O3)[C@H]21 [lovastatin, reference compound] |  | +1.0% | -2.6% | -29.1% | -22.7% |  | 184.6 ± 23.2 mg/dL | 51.4 ± 2.6 mg/dL | 29.9 ± 1.9 mg/dL | 97.4 ± 3.4 mg/dL | 182.6 ± 17.0 mg/dL |  |  |  |  |  |  | 
CCC1=C2c3cc(OC)c(OC)cc3CCN2C(CC(C)=O)c2c1ccc(OC)c2OC (centres unmarked) [Compound No. 37, 8-Acetonyl-13-ethyldihydropalmatine] | markedly decreased | -23.0% | +2.0% | -52.1% | -33.5% | -48.1% | 140.4 ± 15 mg/dL | 54.2 ± 3.0 mg/dL | 20.2 ± 2.0 mg/dL | 83.8 ± 5.6 mg/dL | 68.8 ± 11.5 mg/dL | > 2000 mg/kg | > 2500 mg/kg |  |  | ≤ 1 µM | markedly inhibited | general symptoms and the body weight change of the animals were normal and the lethal case was not observed
CCOc1cc2c(cc1OCC)-c1c(CC)c3ccc(OCC)c(OCC)c3c[n+]1CC2 [Compound No. 5, 2,3,9,10-Tetraethoxy-13-ethylberberine] | markedly decreased | -12.4% | -3.2% | -41.2% | -23.5% | -28.5% | 160.2 ± 20.9 mg/dL | 51.1 ± 3.0 mg/dL | 24.9 ± 3.0 mg/dL | 97.0 ± 5.6 mg/dL | 94.7 ± 11.5 mg/dL | > 5000 mg/kg | > 5000 mg/kg |  |  | ≤ 1 µM | markedly inhibited | general symptoms and the body weight change of the animals were normal and the lethal case was not observed
CCC(=O)CC1c2c(ccc(OC)c2OC)C(CC)=C2c3cc(OC)c(OC)cc3CCN21 (centres unmarked) [Compound No. 38, 8-(butan-2-one-1-yl)-13-ethyldihydropalmatine] |  |  |  |  |  |  |  |  |  |  |  |  |  |  |  | ≤ 1 µM | markedly inhibited | 
COc1ccc2c(c1OC)C(CC1CCCCC1)N1CCc3cc4c(cc3C1=C2)OCO4 (centres unmarked) [Compound No. 31, 8-Cyclohexylmethyldihydroberberine] |  |  |  |  |  |  |  |  |  |  |  |  |  |  |  | ≥ 100 µM |  | 
CCC1=C2c3cc(OC)c(OC)cc3CCN2C(C)c2c1ccc(OC)c2OC (centres unmarked) [Compound No. 48, 8-Methyl-13-ethyldihydropalmatine] |  |  |  |  |  |  |  |  |  |  |  |  |  |  |  | ≥ 100 µM |  | 
CCCCCCCCc1c2[n+](cc3c(OC)c(OC)ccc13)CCc1cc(OC)c(OC)cc1-2 [Compound No. 14, 13-n-octylpalmatine] |  |  |  |  |  |  |  |  |  |  |  |  |  |  |  | ≥ 100 µM |  | 

— patent US6255317A, “Cholesterol biosynthesis inhibitors” (Hanwha Chemical Corporation, priority 1998, dated 2001)
